Results published in patent US8067391B2, “ODCase inhibitors for the treatment of malaria” (University Health Network, priority 2005, dated 2011).
Where two headings read alike, the source gives them in different places.

Legend:
Plasmodium falciparum = assay: anti-malarial activity against Plasmodium falciparum; type: cell-based; conditions: read-out: IC50 anti-malarial activity
Procedure: (§1) Assays comparing the antiplasmodial activities of the compounds of the invention were performed using the SYBR-Green method.^xlviii Briefly, the compounds were dissolved in DMSO to achieve a concentration of 10 mg/mL. Fifty microliters of RPMI-A were added to each well in a 96-well plate before 40 μL of RPMI-A and 10 μL of compound solution were added to the first well, the contents of the well were mixed, 50 μL were removed and added to the next well in the series and the process was repeated until the next-to-last well was reached. This produced a plate with a series of two-fold dilutions across it, except for the last well in the series, which contained RPMI-A alone. Fifty microliters of parasite culture (2% hematocrit, 2% parasitemia) were added to each well and the plates were then incubated at 37° C. in 95% N2, 3% CO2, and 2% O2 for 72 hrs.

Plasmodium vivax = assay: anti-malarial activity against Plasmodium vivax; type: cell-based; conditions: range stated for the group of compounds
P. falciparum ItG = assay: antiplasmodial activity, SYBR-Green method, P. falciparum ItG isolate; type: cell-based; conditions: Plasmodium falciparum, in vitro, FIG. 4, read-out: IC50 anti-plasmodial activity
Procedure: as §1
(§2) CHO cells (ATCC, Manassas, Va.) were grown in RPMI-1640 supplemented with 10% fetal calf serum (Sigma, St. Louis, Mo.), 25 mM HEPES and gentimicin (RPMI-10). Cells were seeded in 96 well plates and grown to 50% confluency in 100 μL of RPMI-10 per well prior to the addition of either DMSO alone, or a test compound dissolved in DMSO to a concentration of 10 mg/mL. […]

P. falciparum 3D7 = assay: antiplasmodial activity, SYBR-Green method, P. falciparum 3D7 isolate; type: cell-based; conditions: Plasmodium falciparum, in vitro, FIG. 4, read-out: IC50 anti-plasmodial activity
Procedure: as §1, §2

[1] = CHO cell toxicity assay (MTT); type: cell-based; conditions: Chinese hamster, CHO cells; CHO cell line
Procedure: CHO cells (ATCC, Manassas, Va.) were grown in RPMI-1640 supplemented with 10% fetal calf serum (Sigma, St. Louis, Mo.), 25 mM HEPES and gentimicin (RPMI-10). Cells were seeded in 96 well plates and grown to 50% confluency in 100 μL of RPMI-10 per well prior to the addition of either DMSO alone, or a test compound dissolved in DMSO to a concentration of 10 mg/mL. Compound gradients were prepared by adding 90 μL of RPMI-10 mixed with 10 μL of compound solution to the first well in the series, mixing, transferring 100 μL to next well and repeating until the next-to-last well was reached. After 48 hrs, the viability of the cells was determined by discarding the media in the wells and adding 100 μL of 10 mg/mL of 3-[4,5-dimethylthiazol-2-yl]-2,5-diphenyltetrazolium bromide (MTT, Sigma, St. Louis, Mo.) in RPMI-10, incubating the plates for an additional hour, and then removing the media and adding 100 μL of DMSO and reading the absorbance at 650 nm.^xlix The IC50 values of individual compounds were determined applying a non-linear regression analysis of the dose-response curve using the computer program SigmaPlot (Jandel Scientific).

[2] = toxicity to Vero cell line; type: cell-based; conditions: African green monkey, Vero cells
[3] = toxicity to human fibroblast (HFF) cell line; type: cell-based; conditions: human fibroblast (HFF) cells
[4] = tested on: human primary blood cells (PBLs); assay: human primary blood cell assay (H-3 incorporation, Con A stimulated); type: cell-based
Procedure: The following procedure was used to conduct human primary blood cell assays. Added 3 ml of PBS (OCI media facility) to 3 ml of serum depleted blood from normal, adult, human controls. Pipetted 6 ml Ficoll-Paque Plus (Amersham 17-1440-03) into a 15 ml centrifuge tube. Overlaid with PBS diluted blood. Centrifuged at 2500 rpm for 10 minutes at room temperature, no brake.
Removed and discarded upper (PBS) phase. Transferred cells at the PBS/Ficoll interface to a clean 15 ml centrifuge tube. Added 10 mL PBS. Then, centrifuged at 1250 rpm for 10 minutes at room temperature.
Discarded the supernatant and resuspended the cell pellet in Iscove's Modified Dulbecco's Medium (Gibco 12440 prepared by OCI Media facility) supplemented with 5.5×10^-5M 2ME (Fisher 03446-100) and 5% FBS (Hyclone SH-30397-03 Lot # KPG21604). Plated cells at 50,000 cells per well in 96 well flat bottom plates (Costar 3595). Added Concanavalin A (Pharmacia 17-0450-01) to a final concentration of 1.5 micro gm/ml. All conditions were set in triplicate.
Included untreated (Con A alone) controls. Cultured cells for 48 hours or 72 hours at 37° C. with 5% CO2 and 90% relative humidity. Added 0.5 uCi H-3 (Perkin Elmer NET027A) per well in 10 microL for the last 8 hours of the culture period. […]
Dried plates for 1 hour at 37° C. […] Data was collected by reading the radioactivity counts.

P. burghei [5] = assay: mouse efficacy study against plasmodia; type: in vivo, mice
From the text: P. chabaudi chabaudi (Pcc) AS infection: They are two different species of mouse malaria that are used commonly in mice efficacy studies: P. chabaudi chabaudi AS and P. burghei. Pcc strain induces larger load of parasites and even some mouse strains die. If P. burghei strain is given to the mouse, they develop fewer parasites but become very sick. Pcc strain provides an opportunity in mice to observe if parasite numbers are reduced in the context of a reasonably healthy animal. Thus, Pcc strain was used in the efficacy model.
Blood-stage PCCAS was maintained in as described (Podoba J E and Stevenson, 1991)[2]. Infections in experimental animals were initiated by intraperitoneal injection of 1×10^6 P. chabaudi chabaudi AS-infected erythrocytes (PCCAS). Course of infection was monitored daily for 18 days by determining parasitemia on thin-blood smears stained with Diff Quik (American Scientific Products, Mississauga, ON). Compounds to be assayed were made up in RPMI 1640 at the concentration required to deliver the target dose in a total volume of 0.5 mL and were then filter sterilized. Compounds were stored at 4° C. prior to use. After infection the presence of parasites in the peripheral circulation was monitored daily until parasites were first observed. The mice were then injected daily for three consecutive days with either RPMI 1640 alone or compound dissolved in RPMI. The health of the animals was assessed daily and the parasitemia determined by examining blood films.
(§3) Efficacy studies in mice were performed using Ii to test the in vivo potential of this compound. Mice were infected with P. burghei, a mouse strain similar to the human malaria parasite P. falciparum. P. burghei strain is approximately 20 times less sensitive to Ii, so the dose in mice had to be adjusted accordingly. Parasitemia was monitored in mice after the drug was given at two different doses: 0.6 mg/mouse (n=3) and 6 mg/mouse (n=3). There was a control group of mice without any treatment with Ii.

ODCase = ODCase inhibition (isothermal titration calorimetry enzymology); type: biochemical
Procedure: (a) Enzymology. ODCase from M. thermoautotrophicum (Mt) and compound Id were incubated at room temperature in the reaction buffer (50 mM Tris, 20 mM DTT, 40 mM NaCl, pH 7.5). The concentrations of the Id were 1×, 2.5×, 3.5× and 5× of the enzyme concentration, corresponding to 50, 125, 175 and 250 μM, respectively. The remaining enzyme activity in the enzyme-inhibitor reaction mixture was measured after 30 min, 2, 4, 8, 12, 24, 48 and 96 hours after the onset of incubation. Aliquots (1 μL) were removed from the reaction mixture and diluted to 2.5 mL with the assay buffer (50 mM Tris, 1 mM DTT, pH 7.5). […]
The inhibition of ODCase from P. falciparum (Pf) was assayed in a similar manner. […] The remaining activity of ODCase was measured at 37° C. for up to 48 hrs. […]
The Pf ODCase concentration in each of the samples (15, 30, and 45 min incubation times) was 60 nM. […] The remaining enzyme activities in these samples were measured by injecting 3 μL of 2.85 mM OMP. The enzyme activity at t=0 was measured by injecting OMP and 6-iodo-UMP simultaneously into the 60 nM enzyme solution in the ITC sample chamber. […] The control sample with 60 nM enzyme was incubated for 15-45 minutes at 37° C., and the enzyme activity was measured after the addition of 3 μL of 2.85 mM OMP. […]
Half-time of inactivation t1/2 was calculated from: t1/2=0.693/kinact (3)

P. burghei [6] = assay: sensitivity of P. burghei strain compared with P. falciparum; conditions: P. burghei strain vs P. falciparum
Procedure: as §3

[7] = range stated for the group of compounds

In the case of `O=c1[nH]c(=O)n([C@@H]2O[C@H](CO)[C@@H](O)[C@H]2O)c(I)c1F` [Ip, 5-fluoro-6-iodo uridine], the IC50 (Plasmodium falciparum; [7]) is reported as 20 to 2000 µM and the IC50 (Plasmodium vivax) is reported as 20 to 2000 µM.

For `[N-]=[N+]=Nc1c(F)c(=O)[nH]c(=O)n1[C@@H]1O[C@H](CO)[C@@H](O)[C@H]1O` [Io, 5-fluoro-6-azido uridine], the IC50 (Plasmodium falciparum; [7]) was 20 to 2000 µM and the IC50 (Plasmodium vivax) was 20 to 2000 µM.

`[N-]=[N+]=Nc1cc(=O)[nH]c(=O)n1[C@@H]1O[C@H](COP(=O)(O)O)[C@@H](O)[C@H]1O` [If, 6-Azido uridine-5′-O-monophosphate] showed an IC50 (Plasmodium falciparum; [7]) of 20 to 2000 µM and an IC50 (Plasmodium vivax) of 20 to 2000 µM.

`COC(=O)c1cc(=O)[nH]c(=O)n1[C@@H]1O[C@H](CO)[C@@H](O)[C@H]1O` [Compound It, 6-Methoxycarbonyl uridine] gave an IC50 (Plasmodium falciparum; [7]) of 20 to 2000 µM and an IC50 (Plasmodium vivax) of 20 to 2000 µM.

`[N-]=[N+]=Nc1cc(=O)[nH]c(=O)n1[C@@H]1O[C@H](CO)[C@@H](O)[C@H]1O` [Id, 6-Azido uridine] showed an IC50 (Plasmodium falciparum; [7]) of 20 to 2000 µM and an IC50 (Plasmodium vivax) of 20 to 2000 µM.

For `O=c1cc(I)n([C@@H]2O[C@H](COP(=O)(O)O)[C@@H](O)[C@H]2O)c(=O)[nH]1` [Ij, 6-Iodo uridine-5′-O-monophosphate], the IC50 (Plasmodium falciparum; [7]) was 20 to 2000 µM and the IC50 (Plasmodium vivax) was 20 to 2000 µM.

`Nc1cc(=O)[nH]c(=O)n1[C@@H]1O[C@H](COP(=O)(O)O)[C@@H](O)[C@H]1O` [Ie, 6-Amino uridine-5′-O-monophosphate] gave an IC50 (Plasmodium falciparum; [7]) of 20 to 2000 µM and an IC50 (Plasmodium vivax) of 20 to 2000 µM.

Work on `O=c1cc(I)n([C@@H]2O[C@H](CO)[C@@H](O)[C@H]2O)c(=O)[nH]1` [Ii, 6-Iodo-uridine] yielded an IC50 (P. falciparum ItG) of 4.4 ± 1.3 µM, an IC50 (P. falciparum 3D7) of 6.2 ± 0.7 µM and an IC50 at 48 h [1] of 366 ± 45 µM. For the same molecule, the CC50 [2] was > 300 µM, the IC50 [3] was > 300 µM and the “toxicity not observed up to” value [4] was > 200 mM. The parasitemia in mice (P. burghei [5]; mice infected with P. burghei, 0.6 and 6 mg/mouse, vs untreated controls, dose-dependent, FIG. 5) was “decreased parasitemia”, the survival rate (P. burghei [5]; mice infected with P. burghei, treated vs controls, FIG. 6) was “longer survival time” and the “survival, multiple dosing, higher doses” value (P. burghei [5]; mouse efficacy study with multiple dosing, vs no drug, FIG. 7) was “increased survival”. The “type of ODCase inhibition” value (ODCase) was “covalent inhibitor” and the “times less sensitive than P. falciparum” value (P. burghei [6]) was “approximately 20 times”.

With `Nc1cc(=O)[nH]c(=O)n1[C@@H]1O[C@H](CO)[C@@H](O)[C@H]1O` [Compound Ic, 6-Amino uridine] the IC50 (Plasmodium falciparum; [7]) was 20 to 2000 µM and the IC50 (Plasmodium vivax) was 20 to 2000 µM.

For `N#Cc1cc(=O)[nH]c(=O)n1[C@@H]1O[C@H](CO)[C@@H](O)[C@H]1O` [Ia, 6-Cyanouridine], the IC50 (Plasmodium falciparum; [7]) was 20 to 2000 µM and the IC50 (Plasmodium vivax) was 20 to 2000 µM.

Molecule `Nc1c(F)c(=O)[nH]c(=O)n1[C@@H]1O[C@H](CO)[C@@H](O)[C@H]1O` [In, 5-Fluoro-6-amino uridine] has an IC50 (Plasmodium falciparum; [7]) of 20 to 2000 µM and an IC50 (Plasmodium vivax) of 20 to 2000 µM.

`N#Cc1cc(=O)[nH]c(=O)n1[C@@H]1O[C@H](COP(=O)(O)O)[C@@H](O)[C@H]1O` [Ib, 6-Cyanouridine-5′-monophosphate] showed an IC50 (Plasmodium falciparum) of 20 to 2000 µM and an IC50 (Plasmodium vivax) of 20 to 2000 µM.
